Experimental data published in ChEMBL document CHEMBL1133739, “Fenchylamine sulfonamide inhibitors of amyloid beta peptide production by the gamma-secretase proteolytic pathway: potential small-molecule therapeutic agents for the treatment of Alzheimer's disease” (J Med Chem, 2000).

Key:
[1] = target: Amyloid-beta precursor protein (Homo sapiens) (UniProt P05067); assay: Inhibition of A-beta-42 production by inhibiting Gamma-secretase proteolytic pathway in HEK293 cell stably transfected with a double mutant form of human APP(K595N/M596L), at 2.5 uM concentration; format: cell-based
[2] = target: Amyloid-beta precursor protein (Homo sapiens) (UniProt P05067); assay: Observed stimulation of the production of soluble beta-amyloid precursor protein; format: functional

Chain of Amyloid-beta precursor protein (Homo sapiens) (P05067 whole entry): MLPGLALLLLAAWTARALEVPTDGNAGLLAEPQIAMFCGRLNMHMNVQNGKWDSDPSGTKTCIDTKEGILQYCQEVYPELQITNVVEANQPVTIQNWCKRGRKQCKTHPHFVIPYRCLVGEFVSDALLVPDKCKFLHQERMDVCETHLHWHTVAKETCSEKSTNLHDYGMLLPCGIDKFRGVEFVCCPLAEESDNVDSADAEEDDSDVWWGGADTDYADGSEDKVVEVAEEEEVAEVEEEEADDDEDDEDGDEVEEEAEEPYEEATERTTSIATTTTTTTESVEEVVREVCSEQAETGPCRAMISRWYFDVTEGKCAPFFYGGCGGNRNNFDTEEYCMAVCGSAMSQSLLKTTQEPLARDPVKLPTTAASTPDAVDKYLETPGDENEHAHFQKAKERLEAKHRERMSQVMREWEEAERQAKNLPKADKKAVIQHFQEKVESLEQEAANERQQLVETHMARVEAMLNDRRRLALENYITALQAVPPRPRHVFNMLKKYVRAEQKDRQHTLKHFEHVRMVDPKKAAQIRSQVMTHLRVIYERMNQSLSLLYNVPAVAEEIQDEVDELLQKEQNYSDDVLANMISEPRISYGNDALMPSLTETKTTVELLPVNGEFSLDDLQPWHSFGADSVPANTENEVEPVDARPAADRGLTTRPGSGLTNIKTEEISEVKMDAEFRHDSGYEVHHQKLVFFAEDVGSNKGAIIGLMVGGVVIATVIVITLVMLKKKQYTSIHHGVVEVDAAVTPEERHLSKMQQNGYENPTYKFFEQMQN

inhibition [1]	Stimulation [2]	SMILES
0%	–	CC12CC[C@@H](C1)C(C)(C)[C@H]2NS(=O)(=O)c1ccc(F)cc1
24%	0%	CC12CC[C@@H](C1)C(C)(C)[C@@H]2NS(=O)(=O)c1ccc(Br)cc1
26%	0%	CC12CC[C@@H](C1)C(C)(C)[C@@H]2NS(=O)(=O)c1ccc(Cl)cc1
0%	–	CC1(C)[C@@H]2CC[C@@](C)(C2)[C@H]1NS(=O)(=O)c1ccc(F)cc1
58%	23%	CC12CC[C@@H](C1)C(C)(C)[C@@H]2NS(=O)(=O)c1ccc(F)cc1 (single isomer, unassigned; (+))
19%	–	CC1(C)[C@H]2CC[C@](C)(C2)[C@H]1NS(=O)(=O)c1ccc(F)cc1
47%	32%	CC12CC[C@@H](C1)C(C)(C)[C@@H]2NS(=O)(=O)c1cccs1
31%	20%	CC12CCC(C1)C(C)(C)C2NS(=O)(=O)c1ccc(F)cc1 (stereo not drawn)
